Data as given in US20030082678A1, “Methods and compositions for regulating body weight in bovine species” (priority 2001, published 2003).
Values joined by “and” are separate entries in the source; they are usually repeats but may differ in a detail not shown here. Identical values can stand only once. Ends that are not written are not given here.

What was measured:
bovine MC4-R = biological target: T1, bovine MC4-R (Bos taurus, UniProt Q9GLJ8); experiment: CRE-luciferase reporter assay in human embryonic kidney 293 cells transiently co-transfected with bovine MC4-R; type: cell-based; settings: for Luciferase Activity: 18 hrs, transiently transfected human embryonic kidney 293 cells
T1 construct: expressed in transfected cells; host or cells: human embryonic kidney 293 cells (ATCC CRL 1573), transient co-transfection of pcDNA3.1-bMC4R with the pGL2-promoter/CRE luciferase reporter
T1 sequence (Q9GLJ8 whole entry): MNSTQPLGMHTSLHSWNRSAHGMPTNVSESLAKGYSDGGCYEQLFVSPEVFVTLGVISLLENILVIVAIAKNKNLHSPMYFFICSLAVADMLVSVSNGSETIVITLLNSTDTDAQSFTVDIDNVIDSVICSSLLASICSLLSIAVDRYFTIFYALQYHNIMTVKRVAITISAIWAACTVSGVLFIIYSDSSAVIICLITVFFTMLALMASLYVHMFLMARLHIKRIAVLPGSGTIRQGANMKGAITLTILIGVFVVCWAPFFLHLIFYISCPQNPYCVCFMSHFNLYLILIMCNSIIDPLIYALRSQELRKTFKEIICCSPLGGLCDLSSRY
Protocol: The phagemid pBluescript-bMC4-R (10 μg) containing a full-length (1.9 kb) bovine MC4-R cDNA (SEQ ID NO:1) was digested using restriction endonucleases EcoRI (20 units, Gibco-BRL) and XhoI (20 units, Gibco-BRL) at 37° C. for 1 hr following the supplier's instructions. The resulting 1.9 kb bovine MC4-R cDNA fragment was then subcloned into the mammalian cell expression plasmid pcDNA3.1(+) (Invitrogen, Carlsband, Calif.) following standard cloning procedures (Sambrook et al., 1989, Molecular Cloning, A Laboratory Manual, Second Edition, Cold Spring Harbor Laboratory Press). The resulting bovine MC4-R expression plasmid, pcDNA3.1-bMC4R, was then used in conjunction with a reporter plasmid, pGL2-promoter/CRE (cyclic AMP activated transcription binding protein response element), to transiently co-transfect human embryonic kidney 293 cells (ATCC CRL 1573) using the LipofectAMINE PLUS reagent kit (Gibco-BRL, catalog no. 10964-013) following the supplier's instructions.
The pGL2-promoter/CRE plasmid, containing tandem cAMP activated transcription binding protein response elements from the rat somatostatin gene (Vallejo, et al., 1992, J. Biol. Chem. 267(18):12868-12875) and human chorionic gonadotropin (hCG) gene (Deutsch, et al., 1987, J. Biol. Chem. 262(25):12169-12174), was prepared following standard cloning procedures (Sambrook et al., supra). In brief, the plasmid was constructed by inserting a double stranded oligonucleotide linker, CRE-2 (SEQ ID NO:22), containing the rat somatostatin CRE sequence (5′-[…]-3′; SEQ ID NO:20), the human chorionic gonadotropin (hCG) CRE sequence (5′-AAATTGACGTCATGGTAA-3′; SEQ ID NO:21), and MluI and BglII cohesive ends, into the MluI and BglII sites, respectively, of plasmid pGL2-promoter (Promega, Madison, Wis., catalog no. E1631). The CRE-2 linker had the structure:
The CRE-2 oligonuceotide linker was prepared by first synthesizing the CREA and CREB oligonucleotides, including the MluI and BglII cohesive ends, using a DNA synthesizer Model 370 from PE-Biosystems (Foster City, Calif.). […]

[1] = biological target: bovine melanocortin 4 receptor protein (MC4-R) (bovine); experiment: cell-based or functional assay

α-MSH was tested, and the “Activation of cloned bovine MC4-R expressed in 293 cells” value (bovine MC4-R; human embryonic kidney 293 cells) was “activated”, the “Luciferase Activity” value (bovine MC4-R; α-MSH 1 nM) was 24.80 and 26.67 and the “Luciferase Activity” value (bovine MC4-R; α-MSH 10 nM) was 35.13 and 37.13.

With SYSMEHFRWGKPV (peptide, UniProt P01189 138-150, looked up, ends and bridges not checked) [human α-MSH] the Luciferase Activity (CRE-luciferase reporter, 293 cells), 0 nM α-MSH (baseline without ligand) [1] was 8.19 and 7.78, the Luciferase Activity (CRE-luciferase reporter, 293 cells), 1 nM α-MSH [1] was 24.8 and 26.7 and the Luciferase Activity (CRE-luciferase reporter, 293 cells), 10 nM α-MSH [1] was 35.1 and 37.1.
